Measurements from patent US20230130243A1, “Method of Treating Urothelial Carcinoma and Other Genitourinary Malignancies Using N-(4-(6,7-dimethoxyquinolin-4-yloxy)phenyl)-N'-(4-fluorophenyl)cyclopropane-1,1-dicarboxamide” (The United States of America, as Represented by the …, priority 2016, published 2023).

What was measured:
[1] = system: metastatic urothelial carcinoma and other genitourinary malignancies; assay: Phase I study of CaboNivo and CaboNivoIpi in patients; assay type: in vivo, human
Description: This example provides results of a Phase I study of Cabozantinib (Cabo)+Nivolumab (Nivo) and (CaboNivo) Cabo+Nivolumab+Ipilimumab (Ipi) (CaboNivoIpi) in patients with metastatic urothelial carcinoma and other genitourinary malignancies.
The study provides results of a Phase I study of Cabozantinib+Nivolumab and Cabozantinib+Nivolumab+Ipilimumab in patients with metastatic urothelial carcinoma and other genitourinary malignancies. The purpose of the study was to determine the dose limiting toxicity (DLT) and recommended Phase II dose (RP2D) of the combination of CaboNivo and separately the combination of CaboNivolpi. In the study, DLT was defined as any event requiring a patient to discontinue study treatment. The DLT evaluation period was 4 weeks (Part 1) and 6 weeks (Part 2).
Secondary endpoints for the study included overall response rate (ORR) by RECIST v1.1; duration of response; progression free survival (PFS); and overall survival (OS). Exploratory Endpoints included the identification of immune subset biomarkers associated with PD-L1 and MET expression as well as correlation with efficacy.
Key eligibility criteria for the study included: • Histologically confirmed diagnostic of genitourinary (GU) malignancy; • Patients with metastatic GU malignancy who has disease progression on at least one standard therapy or there must be no standard treatment that prolongs survival; • A Karnofsky performance status of greater than or equal to 70 percent; and • One evaluable site of disease or bone disease by NaF PET/CT.

[2] = system: relapsed/refractory metastatic urothelial carcinoma (mUC); conditions: pretreated patients with relapsed/refractory mUC; cited from earlier work
[3] = system: peripheral blood mononuclear cells (PBMC); assay: PBMC incubated with Cabozantinib, master regulator transcription factors of CD4+ T-cell polarization (FIGS. 1A and 1B); assay type: cell-based; conditions: PBMCs, 3-4 days, 10% FBS-RPMI, Cabozantinib 10 uM vs DMSO control; three donors
Method: With reference to FIGS. 1A and 1B, peripheral blood mononuclear cells (PBMC) were obtained by centrifugation from buffy coat. PBMCs were incubated for 3-4 days in a 24 well plate with 10% FBS-RPMI medium with DMSO (control) or Cabozantinib (10 uM). Representative data obtained from three different donors were shown. […] Naïve CD4+ T-cells can polarize toward four CD4+ lineages.

[4] = system: Treg (CD4+CD25hiFoxp3+) in CD4+ T-cells; assay: Treg population in urothelial cancer patients treated with cabozantinib (FIGS. 1, 2); assay type: in vivo, human
Description: Directly killing the tregs, and 2. Influencing treg polarization. See Apolo, A B, et al., J. Clin. Oncol. 2014; 32s:abstr 4501.
With reference to FIG. 2, it is believed that cabozantinib downregulates regulatory T cell population by acting on T cell polarization via inhibition of transcription factor Foxp3. The biologic rationale for combining cabozantinib and immune checkpoint blockade in mUC can be extrapolated from the results shown in FIGS. 2A and 2B. In FIG. 2A, patients with lower percent Treg (CD4+CD25hiFoxp3+) in CD4+ T-cells (<3.89%=median value) at baseline had better response compared with those who had higher percent Treg at baseline.

[5] = system: metastatic urothelial carcinoma (mUC); conditions: mUC patients progressed despite prior platinum-containing chemotherapy; cited from earlier work

| patients with 3 dose reductions ([1]; 2 of the 18 patients with dose reduction) | patients with 2 dose reductions ([1]; 6 of the 18 patients with dose reduction) | patients with 1 dose reduction ([1]; 10 of the 18 patients with dose reduction) | patients with ≥1 dose reduction of cabozantinib ([1]; 18 of 42 patients) | median dose reduction ([1]; number of dose reductions per patient, 18 patients) | Compound | clinical activity [2] | suppression of master regulator transcription factors of CD4+ T-cell polarization [3] | percent Treg among CD4+ T-cells ([4]; after treatment with Cabozantinib, FIG. 2B) | Treg population ([4]; urothelial cancer patients, FIG. 1, see Apolo et al. 2014) | clinical activity [5] |
| --- | --- | --- | --- | --- | --- | --- | --- | --- | --- | --- |
| 11% | 33% | 56% | 43% | 1 (range 1-3) | COc1cc2nccc(Oc3ccc(NC(=O)C4(C(=O)Nc5ccc(F)cc5)CC4)cc3)c2cc1OC [Cabozantinib, N-(4-(6,7-dimethoxyquinolin-4-yloxy)phenyl)-N′-(4-fluorophenyl)cyclopropane-1,1-dicarboxamide] | clinical activity | suppresses only Foxp3 | decreased significantly | decrease the Treg population |  |
|  |  |  |  |  | Nivolumab: IgG4 anti-PD-1 monoclonal antibody sold under the name OPDIVO |  |  |  |  | clinical activity |
